Results from patent US8815879B2, “Substituted 4-(selenophen-2(or-3)-ylamino)pyrimidine compounds and methods of use thereof” (Kasina Laila Innova Pharmaceuticals Private Limited, priority 2010, dated 2014).
Entries after “also recorded” stand apart in the source; their conditions may differ. Counter-ions that a name gives are not always drawn.

Legend:
[1] = system: human prostate DU145 cells; test: MTT based cell proliferation assay, DU145; conditions: for IC50 / inhibition at 10 µg/mL: Homo sapiens, DU-145, 72 h; for IC50: read-out: Cell Proliferation Inhibition in DU145 (Prostate carcinoma), IC50; for inhibition at 10 µg/mL: read-out: Cell Proliferation Inhibition in DU145 (Prostate carcinoma), % at highest screening dose
[2] = system: human colorectal carcinoma HT29 cells; test: MTT based cell proliferation assay, HT29; conditions: for IC50 / inhibition at 10 µg/mL: Homo sapiens, HT-29, 72 h; for IC50: read-out: Cell Proliferation Inhibition in HT29 (Colon carcinoma), IC50; for inhibition at 10 µg/mL: read-out: Cell Proliferation Inhibition in HT29 (Colon carcinoma), % at highest screening dose
[3] = system: human lung carcinoma A549 cells; test: MTT based cell proliferation assay, A549; conditions: for IC50 / inhibition at 10 µg/mL: Homo sapiens, A549, 72 h; for IC50: read-out: Cell Proliferation Inhibition in A549 (Lung carcinoma), IC50; for inhibition at 10 µg/mL: read-out: Cell Proliferation Inhibition in A549 (Lung carcinoma), % at highest screening dose
[4] = system: HepG2 (Hepatocellular Carcinoma); test: cells; assay type: cell-based; conditions: for IC50: Homo sapiens, HepG2, MTT, read-out: Cell proliferation inhibition (IC50) in HepG2 (Hepatocellular Carcinoma); for potency compared to Iressa, HepG2: ratio of IC50 values
Method: (§1) MTT [3-(4,5-dimethylthiazol-2-yl)-2,5-diphenyltetrazolium bromide] incorporation based cell proliferation assay was performed using standard procedure. […] The assay was carried out according to the instructions provided by the vendor. […] Vehicle control culture wells received only a maximum of 0.5% DMSO. Thereafter, 0.5 mg/ml of MTT reagent was added to each well and the microplate was incubated further for 4 h at 37° C. in presence of 5% CO2. Finally, the cells were solubilized by adding solubilizing solution and allowed to incubate at 37° C. overnight. After complete solubilization of the formazan crystals the absorbance was read at 540 nm in a microplate reader (BioRad, USA).
(§2) The evaluation of cell proliferation inhibitory activities of the compounds was done in two phases—(1) Screening, and (2) half-maximal inhibitory concentration (IC50) determination. In the screening phase, the cells were treated with three different concentrations e.g. 1, 5 and 10 μg/ml.

[5] = system: human breast carcinoma (estrogen receptor negative) MDA-MB-231 cells; test: cells; assay type: cell-based; conditions: for IC50: Homo sapiens, MDA-MB-231, MTT, read-out: Cell proliferation inhibition (IC50) in MDA-MB-231 (Breast Carcinoma); for potency compared to Iressa, MDA-MB-231: ratio of IC50 values
Method: as §1, §2

[6] = system: human cervical carcinoma HeLa cells; test: cells; assay type: cell-based; conditions: for IC50: Homo sapiens, HeLa, MTT, read-out: Cell proliferation inhibition (IC50) in HeLa (Cervical Carcinoma); for potency compared to Iressa, HeLa: ratio of IC50 values
Method: as §1, §2

[7] = system: Human umbilical vein endothelial cells (HUVEC); test: In vitro endothelial capillary formation assay; assay type: cell-based; conditions: HUVEC on Cultrex, 10 ng/ml FGF, Compound 27 at 0.5, 1.0, 2.5 and 5 μg/ml, 16 h
Method: Human umbilical vein endothelial cells (HUVECs) were laid on Cultrex coated plates in presence of either 10 ng/ml human recombinant Fibroblast Growth Factor (FGF) alone (B) or concomitantly with Compound 27 at 0.5, 1.0, 2.5 and 5 μg/ml C, D, E, and F, respectively. The cells in presence of treatments were allowed to form endothelial capillary tubes for 16 h at 37° C. Panel A represents capillary-like endothelial tube formation in 0.1% DMSO treated vehicle control wells.
In vitro capillary formation assay was performed with Human umbilical vein endothelial cells (HUVEC), cultured on 10 mg/ml basement membrane extract (BME—Cultrex®, R&D Systems, USA) bed. Four hundred microliters of Cultrex was coated at 4° C. in each well of 24-well culture plate and allowed to gel at 37° C. for 1 h. HUVECs were plated at a density of 1×10^5 cells per well with 400 μl of EGM-2 medium (Lonza Walkersville Inc. Walkersville, Md.). The cells were then treated with either 10 ng/ml of Human recombinant Fibroblast Growth Factor (FGF, R&D Systems, Minneapolis, Minn.)) alone or concurrently with different concentrations of Compound 27 for 16 hours. Vehicle control cultures received only 0.1% DMSO. Pictures were taken under a Nikon Eclipse TS 100 microscope equipped with a Nikon Coolpix camera. […] In contrast, FGF promoted human endothelial capillary formation in vitro (FIG. 1).

Row | Compound | melting point [°C] | inhibition at 10 µg/mL [1] [%] | inhibition at 10 µg/mL [2] [%] | inhibition at 10 µg/mL [3] [%] | other results
1 | COc1cc2ncnc(Nc3cc(C(N)=O)[se]c3C)c2cc1OCCCN1CCOCC1 (as salt: HCl) [Compound 11, 4-(6-(3-morpholinopropoxy)-7-methoxyquinazolin-4-ylamino)-5-methylselenophene-2-carboxamide] | 252 to 254 |  |  |  | 
2 | CC(C)(C)c1cc(Nc2ncnc3ncccc23)c(C(N)=O)[se]1 (as salt: HCl) [Compound 12, 5-tert-butyl-3-(pyridino[2,3-d]pyrimidin-4-ylamino)selenophene-2-carboxamide] | 242 to 244 |  |  |  | 
3 | CCc1c(C)sc2ncnc(Nc3cc(C(C)(C)C)[se]c3C(N)=O)c12 (as salt: HCl) [Compound 13, 3-(5-ethyl-6-methylthiopheno[2,3-d]pyrimidin-4-ylamino)-5-tert-butylselenophene-2-carboxamide] | 258 to 260 |  |  |  | 
4 | CC(C)(C)c1cc(Nc2ncnc3cc(C(C)(C)C)[se]c23)c(C(N)=O)[se]1 (as salt: HCl) [Compound 18, 3-(6-tert-butylselenopheno[3,2-d]pyrimidin-4-ylamino)-5-tert-butylselenophene-2-carboxamide] | 212 to 214 |  |  |  | 
5 | CCc1c(C)[se]c2ncnc(Nc3cc(C(C)(C)C)[se]c3C(N)=O)c12 (as salt: HCl) [Compound 19, 3-(5-ethyl-6-methylselenopheno[2,3-d]pyrimidin-4-ylamino)-5-tert-butylselenophene-2-carboxamide] | 278 to 280 |  |  |  | 
6 | COc1cc2ncnc(N(C)c3cc(C(C)(C)C)[se]c3C(N)=O)c2cc1OCCCN1CCOCC1 (as salt: HCl) [Compound 22, 3-(N-(6-(3-morpholinopropoxy)-7-methoxyquinazolin-4-yl)-N-methylamino)-5-tert-butylselenophene-2-carboxamide] | 254 to 256 |  |  |  | 
7 | COc1cc2ncnc(N(CCCl)c3cc(C(C)(C)C)[se]c3C(N)=O)c2cc1OCCCN1CCOCC1 (as salt: HCl) [Compound 23, 3-(N-(6-(3-morpholinopropoxy)-7-methoxyquinazolin-4-yl)-N-(2-chloroethyl)amino)-5-tert-butylselenophene-2-carboxamide] | 190 to 192 |  |  |  | 
8 | COc1cc2nc(C)nc(Nc3cc(C(C)(C)C)[se]c3C(N)=O)c2cc1OC (as salt: HCl) [Compound 24, 3-(6,7-dimethoxy-2-methylquinazolin-4-ylamino)-5-tert-butylselenophene-2-carboxamide] | 282 to 284 |  |  |  | 
9 | COC(=O)c1cc(Nc2nc(C)nc3cc(OC)c(OC)cc23)c(C)[se]1 (as salt: HCl) [Compound 25, methyl 4-(6,7-dimethoxy-2-methylquinazolin-4-ylamino)-5-methylselenophene-2-carboxylate] | 276 to 280 |  |  |  | 
10 | COc1cc2nc(CN(C)C)nc(Nc3cc(C(C)(C)C)[se]c3C(N)=O)c2cc1OC (as salt: HCl) [Compound 27] | 226 to 228 |  |  |  | 
11 | COc1cc2ncnc(Nc3cc(C(C)(C)C)[se]c3C(N)=O)c2cc1OC [Compound 1, 3-(6,7-dimethoxyquinazolin-4-ylamino)-5-tert-butylselenophene-2-carboxamide] | 234 to 238 |  |  |  | IC50 [1]: 3.6 µM; potency in vitro compared to gefitinib (Iressa), DU145 ([1]; ratio of IC50 values): several times better potency; IC50 [2]: 5.12 µM; potency in vitro compared to gefitinib (Iressa), HT29 ([2]; ratio of IC50 values): several times better potency; IC50 [3]: 9.08 µM; potency in vitro compared to gefitinib (Iressa), A549 ([3]; ratio of IC50 values): approximately two times
12 | CSc1cc2ncnc(Nc3cc(C(C)(C)C)[se]c3C(N)=O)c2s1 [Compound 14, 3-(6-(methylthio)thiopheno[3,2-d]pyrimidin-4-ylamino)-5-tert-butyl-selenophene-2-carboxamide] | 260 to 262 | 7.81 | 53.5 | 3.54 | 
13 | CC(C)(C)c1cc(Nc2ncnc3oc(-c4ccccc4)cc23)c(C(N)=O)[se]1 [Compound 15, 3-(6-phenylfuro[2,3-d]pyrimidin-4-ylamino)-5-tert-butylselenophene-2-carboxamide] | 280 to 282 | 3.44 | 25.4 | 5.87 | 
14 | CC(C)(C)c1cc2c(Nc3cc(C(C)(C)C)[se]c3C(N)=O)ncnc2o1 [Compound 16, 3-(6-tert-butylfuro[2,3-d]pyrimidin-4-ylamino)-5-tert-butylselenophene-2-carboxamide] | 288 to 290 | 2.81 | 20.3 | 1.6 | 
15 | COC(=O)c1cc(Nc2ncnc3[nH]c(C)c(C)c23)c(C)[se]1 [Compound 17, methyl 4-(5,6-dimethyl-7H-pyrrolo[2,3-d]pyrimidin-4-ylamino)-5-methylselenophene-2-carboxylate] | 238 to 240 | 7.62 | 4.54 | 2.66 | 
16 | COc1cc2ncnc(N(C)c3cc(C(C)(C)C)[se]c3C(N)=O)c2cc1OC [Compound 21, 3-(N-(6,7-dimethoxyquinazolin-4-yl)-N-methylamino)-5-tert-butylseleno-phene-2-carboxamide] | 256 to 258 |  |  |  | IC50 [1]: 3.95 µM; IC50 [2]: 3.88 µM; IC50 [3]: 3.59 µM; IC50 [4]: 2330 nM; potency compared to Iressa, HepG2 [4]: fifteen; IC50 [5]: 2860 nM; potency compared to Iressa, MDA-MB-231 [5]: sixteen; IC50 [6]: 2970 nM; potency compared to Iressa, HeLa [6]: seventeen times
17 | COc1cc2nc(CN(C)C)nc(Nc3cc(C(C)(C)C)[se]c3C(N)=O)c2cc1OC [Compound 27] |  |  |  |  | IC50 [1]: 2.97 µM; inhibition of FGF induced capillary-like endothelial tube formation [7]: inhibits capillary-like endothelial tube formation in vitro; also recorded: inhibited FGF induced capillary formation in a dose dependent manner; inhibition of FGF induced capillary-like endothelial tube formation ([7]; listed as compound 27): significantly inhibiting endothelial capillary formation in a dose dependent manner; IC50 [2]: 2.86 µM; IC50 [3]: 3.58 µM; IC50 [4]: 2340 nM; potency compared to Iressa, HepG2 [4]: equally more potent than Iressa; IC50 [5]: 3090 nM; potency compared to Iressa, MDA-MB-231 [5]: equally more potent than Iressa; IC50 [6]: 2880 nM; potency compared to Iressa, HeLa [6]: equally more potent than Iressa
18 | COc1cc2nc(-c3ccc(Cl)cc3)nc(Nc3cc(C(C)(C)C)[se]c3C(N)=O)c2cc1OC [Compound 28, 3-(2-(4-chlorophenyl)-6,7-dimethoxyquinazolin-4-ylamino)-5-tert-butylselenophene-2-carboxamide] | 268 to 270 | 10.4 | 2.69 | 9 | 
19 | COc1cc2ncnc(Oc3cc(C(C)(C)C)[se]c3C(N)=O)c2cc1OC [Compound 29, 3-(6,7-dimethoxyquinazolin-4-yloxy)-5-tert-butylselenophene-2-carboxamide] | 220 to 224 | 43 | 44.6 | 15.6 | 
